Data published in patent US20130072720A1, “PHARMACEUTICAL COMPOSITION FOR TREATMENT OF OSTEOARTHRITIS” (NATIONAL DEFENSE MEDICAL CENTER, priority 2011, published 2013).

How the values were obtained:
[1] = test system: porcine chondrocytes; assay: MTT cell viability assay; format: cell-based; conditions: any of the concentrations
From the text: (§1) Cytotoxicity of HS—Cf also has been checked. HS—Cf is used as a pharmaceutical composition so that cytotoxicity of HS—Cf has to be carefully considered for determining whether HS—Cf can be used for treatment of osteoarthritis. […] Thus HS—Cf is used in treatment of organisms.

[2] = test system: ADAMTS-4, also called Aggrecanase-1; assay: TNF-α-induced ADAMTS-4 mRNA expression by Q-PCR; format: cell-based; conditions: porcine chondrocytes, HS—Cf 2 hours, then TNF-α (5 ng/ml) four hours
Description: (§2) The following embodiments show suppression effect of HS—Cf on those factors involved in signaling pathways of TNF-α-induced IRF-1 expression and prevention effect of HS—Cf on TNF-mediated collagen loss and proteoglycan loss. All porcine chondrocytes used are obtained from the hind leg joints of pigs.
(§3) TNF-α induced ADAMTS-4 is one of the factors that damage and destroy cartilage. Mix HS—Cf in different concentrations with porcine chondrocytes and react for 2 hours. Then add TNF-α (5 ng/ml) to stimulate cells for four hours. Next measure mRNA expression by Q-PCR.

[3] = test system: inducible nitric oxide synthase (iNOS); assay: TNF-α-induced iNOS expression in chondrocytes; format: cell-based, porcine; conditions: chondrocytes stimulated by TNF-α (5 ng/ml), after 48 hours, HS—Cf in different concentrations
From the text: as §2
(§4) NO (nitric oxide) is generated by TNF-α-induced iNOS so that iNOS expression is correlated with NO production. HS—Cf in different concentrations are delivered to chondrocytes stimulated by TNF-α (5 ng/ml).

[4] = test system: proteoglycan (aggrecan); assay: Loss prevention of proteoglycan under TNF-α stimulation, Safranin-O staining; format: cell-based; conditions: porcine chondrocytes, 5/or 10 μM HS—Cf 24 hours, then TNF-α (5 ng/ml) 72 hours
Description: as §2
Besides collagen II, loss of proteoglycan (aggrecan) is also affected by HS—Cf. […] Then add TNF-α (5 ng/ml) to stimulate porcine chondrocytes for 72 hours. Next use Safranin-O staining to observe the amount of proteoglycan in cartilaginous tissue.

[5] = test system: NO (nitric oxide); assay: NO production in TNF-α-stimulated chondrocytes; format: cell-based, porcine; conditions: chondrocytes stimulated by TNF-α (5 ng/ml), after 48 hours, HS—Cf in different concentrations
From the text: as §2, §4

[6] = test system: matrix metalloproteinase-1 (MMP-1); assay: TNF-α-induced MMP-1 mRNA expression by Q-PCR; format: cell-based; conditions: porcine chondrocytes, HS—Cf 2 hours, then TNF-α (5 ng/ml) four hours
Description: as §2
as §3, with “TNF-α-induced MMP-1” for “TNF-α induced ADAMTS-4”, “porcine chondrocytes” for “cells”, “real-time quantitative-polymerase chain reaction (Q-PCR).” for “Q-PCR.”

[7] = test system: ADAMTS-5, also called Aggrecanase-2; assay: TNF-α-induced ADAMTS-5 mRNA expression by Q-PCR; format: cell-based; conditions: porcine chondrocytes, HS—Cf 2 hours, then TNF-α (5 ng/ml) four hours
Description: as §2
TNF-α induced ADAMTS-5 is one of the factors that damage and destroy cartilage. Mix HS—Cf in different concentrations with porcine chondrocytes and react for 2 hours. Then add TNF-α (5 ng/ml) to stimulate cells for four hours. Next observe mRNA expression by Q-PCR.

[8] = test system: matrix metalloproteinase-13 (MMP-13); assay: TNF-α-induced MMP-13 mRNA expression by Q-PCR; format: cell-based; conditions: porcine chondrocytes, HS—Cf 2 hours, then TNF-α (5 ng/ml) four hours
Description: as §2
Mix HS—Cf in different concentrations with porcine chondrocytes and react for 2 hours. Then add TNF-α (5 ng/ml) to stimulate cells for four hours. Next observe mRNA expression by real-time quantitative-polymerase chain reaction (Q-PCR).

[9] = test system: porcine chondrocytes; assay: lactate dehydrogenase (LDH) assay; format: cell-based; conditions: any of the concentrations
From the text: as §1

[10] = test system: collagen II; assay: Loss prevention of collagen II under TNF-α stimulation, Western blot; format: cell-based; conditions: porcine chondrocytes, HS—Cf 24 hours, then TNF-α (5 ng/ml) 48 hours
Description: as §2
As shown in the figure, after mixing porcine chondrocytes with TNF-α (5 ng/ml), the amount of collagen II at different times is determined by Western Blot. It is confirmed that collagen II is degraded and lost along with the time under TNF-α stimulation. […] Then add TNF-α (5 ng/ml) to stimulate porcine chondrocytes for 48 hours. Next use western blot to measure the amount of protein.

[11] = test system: matrix metalloproteinase-3 (MMP-3); assay: TNF-α-induced MMP-3 mRNA expression by Q-PCR; format: cell-based; conditions: porcine chondrocytes, HS—Cf 2 hours, then TNF-α (5 ng/ml) four hours
Description: as §2
as §3, with “TNF-α-induced MMP-3” for “TNF-α induced ADAMTS-4”, “porcine chondrocytes” for “cells”, “real-time quantitative-polymerase chain reaction (Q-PCR).” for “Q-PCR.”

In the case of `O=C(Nc1cccc(C(F)(F)F)c1)c1ccccc1O` [HS—Cf, 2-hydroxy-N-[3-(trifluoromethyl)phenyl]benzamide], the “cytotoxicity (MTT cell viability assay)” value [1] is reported as “no obvious cytotoxic effect”, the “ADAMTS-4 mRNA expression” value [2] is reported as “ADAMTS-4 expression is decreased along with the increasing concentration” and the iNOS expression [3] is reported as “significantly decreases iNOS expression at higher concentration”. For the same compound, the “degradation and loss of proteoglycan” value [4] was “degradation and loss of proteoglycan is under control”, the NO production [5] was “NO production is also reduced along with the increasing concentration” and the “MMP-1 mRNA expression” value [6] was “MMP-1 expression is decreased along with the increasing concentration”. For the same compound, the “ADAMTS-5 mRNA expression” value [7] was “ADAMTS-5 expression is decreased along with the increasing concentration”, the “MMP-13 mRNA expression” value [8] was “MMP-13 expression is decreased along with the increasing concentration” and the “cytotoxicity (LDH assay)” value [9] was “no obvious cytotoxic effect”. The “degradation and loss of collagen II” value [10] was “degradation and loss of collagen II is under control” and the “MMP-3 mRNA expression” value [11] was “decreases MMP-3 expression at higher concentration”.
